In ChEMBL document CHEMBL5678818, “Discovery of potent SOS1 inhibitors that block RAS activation via disruption of the RAS-SOS1 interaction” (Proc Natl Acad Sci U S A, 2019):

Tests used:
[1] = target: Calcium/calmodulin-dependent protein kinase type 1G (Homo sapiens) (UniProt Q96NX5); experiment: Inhibition of CAMK1G (unknown origin) assessed as residual activity at 1000 nM by KINOMEscan analysis relative to control
[2] = target: Cyclin-dependent kinase 3 (Homo sapiens) (UniProt Q00526); experiment: Inhibition of CDK3 (unknown origin) assessed as residual activity at 1000 nM by KINOMEscan analysis relative to control
[3] = target: Casein kinase I isoform epsilon (Homo sapiens) (UniProt P49674); experiment: Inhibition of CSNK1E (unknown origin) assessed as residual activity at 1000 nM by KINOMEscan analysis relative to control
[4] = target: Death-associated protein kinase 2 (Homo sapiens) (UniProt Q9UIK4); experiment: Inhibition of DAPK2 (unknown origin) assessed as residual activity at 1000 nM by KINOMEscan analysis relative to control
[5] = target: Homeodomain-interacting protein kinase 3 (Homo sapiens) (UniProt Q9H422); experiment: Inhibition of HIPK3 (unknown origin) assessed as residual activity at 1000 nM by KINOMEscan analysis relative to control
[6] = target: T1, Tyrosine-protein kinase ITK/TSK (Homo sapiens) (UniProt Q08881); experiment: Inhibition of ITK (unknown origin) assessed as residual activity at 1000 nM by KINOMEscan analysis relative to control
T1 sequence (whole entry): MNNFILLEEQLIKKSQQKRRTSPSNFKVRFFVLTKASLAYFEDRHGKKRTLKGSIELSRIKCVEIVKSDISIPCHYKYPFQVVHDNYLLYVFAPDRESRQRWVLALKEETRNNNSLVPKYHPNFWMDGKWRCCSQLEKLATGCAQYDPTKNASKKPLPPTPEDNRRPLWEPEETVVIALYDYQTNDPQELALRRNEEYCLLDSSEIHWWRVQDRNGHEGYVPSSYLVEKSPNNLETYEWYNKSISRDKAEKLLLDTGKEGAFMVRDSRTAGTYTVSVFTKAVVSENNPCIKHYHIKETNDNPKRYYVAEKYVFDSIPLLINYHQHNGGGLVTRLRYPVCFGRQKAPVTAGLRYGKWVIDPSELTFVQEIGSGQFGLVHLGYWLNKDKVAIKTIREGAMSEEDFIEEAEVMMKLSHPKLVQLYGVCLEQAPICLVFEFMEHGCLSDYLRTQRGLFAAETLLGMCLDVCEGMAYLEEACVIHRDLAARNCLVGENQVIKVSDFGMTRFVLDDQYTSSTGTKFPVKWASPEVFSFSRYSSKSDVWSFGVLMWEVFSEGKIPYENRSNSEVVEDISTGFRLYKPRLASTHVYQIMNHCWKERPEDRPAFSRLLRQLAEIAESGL

[7] = target: LIM domain kinase 1 (Homo sapiens) (UniProt P53667); experiment: Inhibition of LIMK1 (unknown origin) assessed as residual activity at 1000 nM by KINOMEscan analysis relative to control
[8] = target: Serine/threonine-protein kinase Nek6 (Homo sapiens) (UniProt Q9HC98); experiment: Inhibition of NEK6 (unknown origin) assessed as residual activity at 1000 nM by KINOMEscan analysis relative to control
[9] = tested on: Phosphatidylinositol 4,5-bisphosphate 3-kinase catalytic subunit alpha isoform (Homo sapiens), P42336 [Q546K]; experiment: Inhibition of PIK3CA Q546K mutant (unknown origin) assessed as residual activity at 1000 nM by KINOMEscan analysis relative to control
[10] = target: T2, Serine/threonine-protein kinase PLK4 (Homo sapiens) (UniProt O00444); experiment: Inhibition of PLK4 (unknown origin) assessed as residual activity at 1000 nM by KINOMEscan analysis relative to control
T2 sequence (whole entry): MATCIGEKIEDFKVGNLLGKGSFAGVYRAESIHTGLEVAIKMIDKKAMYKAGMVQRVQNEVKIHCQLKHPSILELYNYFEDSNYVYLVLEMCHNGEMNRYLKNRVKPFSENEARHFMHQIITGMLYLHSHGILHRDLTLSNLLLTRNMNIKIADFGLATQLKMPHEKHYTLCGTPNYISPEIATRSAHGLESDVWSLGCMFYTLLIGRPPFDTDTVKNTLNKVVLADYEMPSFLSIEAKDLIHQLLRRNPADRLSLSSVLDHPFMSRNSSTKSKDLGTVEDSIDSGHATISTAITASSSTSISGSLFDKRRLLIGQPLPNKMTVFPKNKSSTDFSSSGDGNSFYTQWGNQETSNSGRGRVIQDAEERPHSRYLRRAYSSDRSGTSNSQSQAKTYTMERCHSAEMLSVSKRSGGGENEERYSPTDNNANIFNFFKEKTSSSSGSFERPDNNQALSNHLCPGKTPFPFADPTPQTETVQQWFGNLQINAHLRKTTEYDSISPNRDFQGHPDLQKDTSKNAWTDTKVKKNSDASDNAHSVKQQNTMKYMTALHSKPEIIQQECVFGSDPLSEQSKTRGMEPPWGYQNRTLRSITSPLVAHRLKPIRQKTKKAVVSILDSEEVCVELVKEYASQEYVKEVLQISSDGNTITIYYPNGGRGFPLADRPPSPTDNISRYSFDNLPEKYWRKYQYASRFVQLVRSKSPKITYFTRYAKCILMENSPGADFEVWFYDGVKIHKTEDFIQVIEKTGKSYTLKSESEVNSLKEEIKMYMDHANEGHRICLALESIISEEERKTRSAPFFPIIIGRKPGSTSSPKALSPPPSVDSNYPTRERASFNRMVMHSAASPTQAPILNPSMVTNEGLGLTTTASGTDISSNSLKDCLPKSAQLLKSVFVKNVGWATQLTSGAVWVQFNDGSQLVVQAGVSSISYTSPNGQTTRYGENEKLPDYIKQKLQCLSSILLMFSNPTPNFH

[11] = target: Serine/threonine-protein kinase SIK3 (Homo sapiens) (UniProt Q9Y2K2); experiment: Inhibition of QSK (unknown origin) assessed as residual activity at 1000 nM by KINOMEscan analysis relative to control
[12] = target: Tyrosine-protein kinase receptor Tie-1 (Homo sapiens) (UniProt P35590); experiment: Inhibition of TIE1 (unknown origin) assessed as residual activity at 1000 nM by KINOMEscan analysis relative to control
Chain of Tyrosine-protein kinase receptor Tie-1 (Homo sapiens) (P35590 whole entry): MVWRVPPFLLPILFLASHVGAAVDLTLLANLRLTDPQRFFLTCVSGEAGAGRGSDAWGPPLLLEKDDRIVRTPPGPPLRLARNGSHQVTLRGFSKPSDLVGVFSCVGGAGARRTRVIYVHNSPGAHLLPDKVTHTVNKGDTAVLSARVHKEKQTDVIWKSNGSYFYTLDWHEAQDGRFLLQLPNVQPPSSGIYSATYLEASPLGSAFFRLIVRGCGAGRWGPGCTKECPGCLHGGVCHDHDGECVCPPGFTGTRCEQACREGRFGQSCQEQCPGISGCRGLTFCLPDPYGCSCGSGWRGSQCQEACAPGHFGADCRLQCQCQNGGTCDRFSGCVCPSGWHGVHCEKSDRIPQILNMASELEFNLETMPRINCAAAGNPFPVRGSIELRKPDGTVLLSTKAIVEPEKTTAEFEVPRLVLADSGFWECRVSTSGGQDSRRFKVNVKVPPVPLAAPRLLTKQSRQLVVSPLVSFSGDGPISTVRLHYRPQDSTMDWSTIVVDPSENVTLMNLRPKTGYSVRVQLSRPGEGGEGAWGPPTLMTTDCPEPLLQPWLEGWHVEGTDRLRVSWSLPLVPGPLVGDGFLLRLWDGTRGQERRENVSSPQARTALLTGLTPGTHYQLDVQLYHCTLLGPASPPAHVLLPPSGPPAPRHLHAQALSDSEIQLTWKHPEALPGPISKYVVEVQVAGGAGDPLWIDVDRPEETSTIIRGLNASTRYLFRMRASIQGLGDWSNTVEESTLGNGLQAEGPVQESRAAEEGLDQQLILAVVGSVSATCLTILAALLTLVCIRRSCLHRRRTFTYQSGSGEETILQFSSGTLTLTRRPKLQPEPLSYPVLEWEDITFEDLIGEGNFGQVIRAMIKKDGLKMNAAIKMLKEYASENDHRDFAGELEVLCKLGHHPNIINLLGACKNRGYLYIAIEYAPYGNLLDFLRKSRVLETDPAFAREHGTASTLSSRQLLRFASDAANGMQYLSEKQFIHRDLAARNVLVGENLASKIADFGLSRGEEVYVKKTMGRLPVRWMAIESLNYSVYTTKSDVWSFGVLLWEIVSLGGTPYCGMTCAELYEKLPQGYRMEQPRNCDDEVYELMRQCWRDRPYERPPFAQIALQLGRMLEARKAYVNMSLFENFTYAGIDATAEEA

Chain of Phosphatidylinositol 4,5-bisphosphate 3-kinase catalytic subunit alpha isoform (Homo sapiens), P42336 [Q546K] (P42336 whole entry Q546K, canonical isoform): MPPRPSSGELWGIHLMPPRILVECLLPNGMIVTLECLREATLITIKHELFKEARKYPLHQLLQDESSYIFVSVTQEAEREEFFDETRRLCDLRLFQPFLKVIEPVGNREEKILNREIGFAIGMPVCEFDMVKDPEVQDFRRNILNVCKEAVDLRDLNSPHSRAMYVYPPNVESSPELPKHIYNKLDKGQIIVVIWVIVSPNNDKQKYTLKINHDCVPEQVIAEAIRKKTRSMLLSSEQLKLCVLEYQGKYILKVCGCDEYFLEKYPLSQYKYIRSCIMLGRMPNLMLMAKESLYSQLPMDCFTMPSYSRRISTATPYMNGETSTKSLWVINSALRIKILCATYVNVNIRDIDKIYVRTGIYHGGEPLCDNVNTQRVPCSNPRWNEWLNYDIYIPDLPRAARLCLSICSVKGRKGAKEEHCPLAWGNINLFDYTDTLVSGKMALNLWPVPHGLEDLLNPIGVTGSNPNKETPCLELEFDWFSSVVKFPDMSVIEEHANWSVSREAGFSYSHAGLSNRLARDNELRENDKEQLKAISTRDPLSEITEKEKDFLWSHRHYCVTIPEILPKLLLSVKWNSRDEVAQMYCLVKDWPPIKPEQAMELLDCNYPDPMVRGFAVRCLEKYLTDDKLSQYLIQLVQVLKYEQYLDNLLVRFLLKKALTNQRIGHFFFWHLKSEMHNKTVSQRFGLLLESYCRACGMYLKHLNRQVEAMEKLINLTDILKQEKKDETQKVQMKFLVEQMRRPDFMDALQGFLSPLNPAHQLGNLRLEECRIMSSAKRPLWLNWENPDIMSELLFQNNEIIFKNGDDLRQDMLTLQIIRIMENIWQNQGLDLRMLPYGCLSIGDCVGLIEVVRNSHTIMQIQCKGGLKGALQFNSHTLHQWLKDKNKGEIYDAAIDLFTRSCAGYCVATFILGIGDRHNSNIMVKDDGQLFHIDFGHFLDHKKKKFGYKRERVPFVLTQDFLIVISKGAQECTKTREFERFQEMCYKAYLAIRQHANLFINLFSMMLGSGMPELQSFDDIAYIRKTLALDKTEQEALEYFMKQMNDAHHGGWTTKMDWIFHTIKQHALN
Chain of Casein kinase I isoform epsilon (Homo sapiens) (P49674 whole entry, looked up, canonical isoform): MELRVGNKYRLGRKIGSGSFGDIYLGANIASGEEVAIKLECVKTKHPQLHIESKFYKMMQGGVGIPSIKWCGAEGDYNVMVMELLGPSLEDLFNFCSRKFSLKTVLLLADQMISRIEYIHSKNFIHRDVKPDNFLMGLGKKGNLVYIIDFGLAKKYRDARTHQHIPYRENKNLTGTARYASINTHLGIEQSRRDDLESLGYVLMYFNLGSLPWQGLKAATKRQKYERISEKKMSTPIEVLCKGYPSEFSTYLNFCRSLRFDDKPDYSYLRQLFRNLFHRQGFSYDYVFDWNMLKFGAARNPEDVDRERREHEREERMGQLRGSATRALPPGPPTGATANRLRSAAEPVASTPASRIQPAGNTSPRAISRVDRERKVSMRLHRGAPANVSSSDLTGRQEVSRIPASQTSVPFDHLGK
Chain of Calcium/calmodulin-dependent protein kinase type 1G (Homo sapiens) (Q96NX5 whole entry): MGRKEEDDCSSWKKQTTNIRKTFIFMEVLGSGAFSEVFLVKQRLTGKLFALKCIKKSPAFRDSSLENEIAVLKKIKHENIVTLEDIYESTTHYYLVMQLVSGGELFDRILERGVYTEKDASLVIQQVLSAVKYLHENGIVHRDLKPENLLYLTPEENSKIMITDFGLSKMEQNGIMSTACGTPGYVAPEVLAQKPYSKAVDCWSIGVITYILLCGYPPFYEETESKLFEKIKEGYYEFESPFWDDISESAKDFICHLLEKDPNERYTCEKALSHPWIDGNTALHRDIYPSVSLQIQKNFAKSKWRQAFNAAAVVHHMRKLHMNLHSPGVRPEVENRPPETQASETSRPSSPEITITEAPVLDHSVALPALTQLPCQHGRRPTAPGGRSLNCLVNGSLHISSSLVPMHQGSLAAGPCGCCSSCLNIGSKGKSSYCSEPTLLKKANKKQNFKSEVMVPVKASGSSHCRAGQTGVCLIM
Chain of Serine/threonine-protein kinase Nek6 (Homo sapiens) (Q9HC98 whole entry, canonical isoform): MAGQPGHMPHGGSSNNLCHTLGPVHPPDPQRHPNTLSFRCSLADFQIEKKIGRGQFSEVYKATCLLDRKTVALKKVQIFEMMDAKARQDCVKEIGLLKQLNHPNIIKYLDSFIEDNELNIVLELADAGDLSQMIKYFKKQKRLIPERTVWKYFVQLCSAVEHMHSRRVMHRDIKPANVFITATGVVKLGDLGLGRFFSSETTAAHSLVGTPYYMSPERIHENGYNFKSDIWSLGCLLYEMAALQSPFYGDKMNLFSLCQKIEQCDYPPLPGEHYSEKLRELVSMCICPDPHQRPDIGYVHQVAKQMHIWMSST
Chain of Homeodomain-interacting protein kinase 3 (Homo sapiens) (Q9H422 whole entry, looked up): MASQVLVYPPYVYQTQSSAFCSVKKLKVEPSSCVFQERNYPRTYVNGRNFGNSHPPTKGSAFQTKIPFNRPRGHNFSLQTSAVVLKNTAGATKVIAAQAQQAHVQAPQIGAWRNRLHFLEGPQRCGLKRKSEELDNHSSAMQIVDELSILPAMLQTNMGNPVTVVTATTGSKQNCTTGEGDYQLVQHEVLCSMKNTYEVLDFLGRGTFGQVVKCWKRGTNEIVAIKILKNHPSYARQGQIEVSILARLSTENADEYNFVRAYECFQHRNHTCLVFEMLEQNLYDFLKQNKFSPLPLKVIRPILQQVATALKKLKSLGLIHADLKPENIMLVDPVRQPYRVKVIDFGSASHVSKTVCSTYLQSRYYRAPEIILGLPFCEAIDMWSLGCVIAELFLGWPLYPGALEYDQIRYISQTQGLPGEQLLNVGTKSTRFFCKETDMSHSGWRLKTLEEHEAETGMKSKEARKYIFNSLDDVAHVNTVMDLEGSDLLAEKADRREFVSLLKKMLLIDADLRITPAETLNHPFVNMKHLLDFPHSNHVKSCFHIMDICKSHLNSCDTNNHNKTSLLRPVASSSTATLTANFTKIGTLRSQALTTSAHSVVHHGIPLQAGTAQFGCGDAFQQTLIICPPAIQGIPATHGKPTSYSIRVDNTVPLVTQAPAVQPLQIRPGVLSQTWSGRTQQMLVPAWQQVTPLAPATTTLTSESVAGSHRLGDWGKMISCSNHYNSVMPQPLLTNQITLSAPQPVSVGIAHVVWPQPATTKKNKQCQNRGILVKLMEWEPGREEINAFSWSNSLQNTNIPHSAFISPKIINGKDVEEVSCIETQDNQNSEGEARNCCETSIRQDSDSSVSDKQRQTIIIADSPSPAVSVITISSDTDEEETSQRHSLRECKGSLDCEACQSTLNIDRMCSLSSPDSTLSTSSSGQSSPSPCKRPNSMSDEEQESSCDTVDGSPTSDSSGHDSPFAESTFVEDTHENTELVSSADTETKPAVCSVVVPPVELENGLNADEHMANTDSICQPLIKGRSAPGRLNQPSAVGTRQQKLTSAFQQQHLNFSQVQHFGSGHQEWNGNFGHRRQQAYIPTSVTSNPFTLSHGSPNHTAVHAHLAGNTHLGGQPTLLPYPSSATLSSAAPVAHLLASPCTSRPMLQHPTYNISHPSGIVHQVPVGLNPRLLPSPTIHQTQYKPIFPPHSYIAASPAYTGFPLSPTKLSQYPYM
Chain of Death-associated protein kinase 2 (Homo sapiens) (Q9UIK4 whole entry, looked up): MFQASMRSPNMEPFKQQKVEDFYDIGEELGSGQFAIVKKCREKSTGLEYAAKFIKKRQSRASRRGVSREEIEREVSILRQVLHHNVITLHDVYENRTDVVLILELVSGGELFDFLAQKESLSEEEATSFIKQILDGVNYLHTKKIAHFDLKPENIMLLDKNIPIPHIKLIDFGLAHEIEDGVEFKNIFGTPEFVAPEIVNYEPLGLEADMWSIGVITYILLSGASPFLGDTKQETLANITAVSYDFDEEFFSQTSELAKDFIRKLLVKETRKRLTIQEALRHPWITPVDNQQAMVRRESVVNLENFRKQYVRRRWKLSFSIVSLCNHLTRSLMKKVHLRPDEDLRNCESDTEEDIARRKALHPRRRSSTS

SMILES	Activity [1]	Activity [2]	Activity [3]	Activity [4]	Activity [5]	Activity [6]	Activity [7]	Activity [8]	Activity [9]	Activity [10]	Activity [11]	Activity [12]
COc1cc2nc(C)nc(N[C@H](C)c3cccc(-c4cn[nH]c4)c3)c2cc1OC	100%	90%	97%	73%	69%	67%	100%	93%	87%	100%	83%	87%
COc1cc2ncnc(N[C@H](C)c3cccc4ccccc34)c2cc1OC	98%	97%	100%	99%	88%	100%	100%	97%	83%	96%	84%	100%
